The values below come from US20120028244A1, “Anti-Viral Azide Containing Compounds” (LIFE TECHNOLOGIES CORPORATION, priority 2010, published 2012).

Each structure is given as a SMILES string.

Test [1] has as its system Nuclear-GFP BacMam 2.0 virus (baculovirus). The experiment in a line: Infectivity of PTM analog-labeled Nuclear-GFP BacMam virus in U2-OS cells. It is filed as cell-based. As to conditions: BacMam virus labeled in Sf9 insect cells with 50 uM analog; U2-OS cells incubated overnight with labeled virus; FIG. 5. The source says: Inhibition of insect cell baculovirus infectivity with azido fatty acid analogs: The BacMam system uses a modified insect cell virus (baculovirus) as a vehicle to efficiently deliver and express genes in mammalian cells. A Nuclear-GFP BacMam 2.0 expression system (Invitrogen, C10602) was used as a model to determine if PTM analog labeling of the virus would affect mammalian cell infectivity. Viruses were labeled with various PTM analogs and used to infect mammalian cells. Infectivity was determined by the expression of nuclear-GFP, as viral entry into the cell is required for expression of GFP protein. […]
Characterization of BacMam Virus Production: To verify, quantitate, and normalize the amount of enriched viruses obtained from insect cell supernatants, samples of each virus were lysed in SDS sample preparation buffer (SPB), sonicated with a probe tip sonicator, and heated at 90C to completely dissolve the viral proteins. Viral protein concentrations of the lysates were then determined. […]
Mammalian Cell Infection Protocol: To determine if the PTM analog-labeled viruses retain the ability to infect mammalian cells, 50,000 U2-OS cells (human osteosarcoma cell line) were plated onto a 6 well-chamber glass bottom plate. […] The following day cells were imaged on AMG EVOS fluorescence microscope at 10× or 20× magnification using both white light and GFP filters (FIG. 5). […]

In the next test the test system is HIV. The experiment in a line: Luciferase reporter assay of infectivity of azide-labeled HIV on TZM/BI reporter cells. It is filed as cell-based, human immunodeficiency virus. As to conditions: HIVNL4-3 produced in CEMx174 cells spiked with the compound; labeled virus incubated 12 hours on TZM/BI reporter cells; single cycle replication system; FIGS. 3 and 4. The procedure: CEMx174 cells were transfected with HIVNL4-3 in a T-150 flask and the virus production was monitored by reverse transcriptase activity until peak virus production occurred (usually 7 to 9 days post transfection). Prior to transfection, the CEMx174 cells were spiked with the following azide-modified biomolecules: 15-azidopentadecanoic acid (50-100 μM), 12-azidododecanoic acid (50-100 μM), tetraacetylated N-azidoacetylgalactosamine (20-40 μM), and tetraacetylated N-azidoacetyl-D-mannosamine (20-40 μM).
Labeled virus was also obtained from the transfected cells. More specifically, virus-containing supernatants were collected and virus was purified through 20% sucrose as previously described (Graham, D. R. et al., Proteomics 2008, 8:4919-30). The purified virus was then mixed with the CLICK-IT® detection reagent, tetramethylrhodamine (TAMRA) alkyne and the CLICK-IT® Protein Reaction Buffer Kit (Invitrogen, Carlsbad, Calif.). Virus samples were run on a one-dimensional gel to reveal azide-labeled viral proteins (FIG. 2). […]
To examine the effect of the azide-modified biomolecules on the innate biology of the virus, the azide-labeled virus from the transfected cells was isolated and tested in cell infection studies. […] Viral infectivity was determined by measuring cellular luciferase activities with two different luciferase reagents.

As for `[N-]=[N+]=NCCCCCCCCCCCCCCC(=O)O` [15-azidopentadecanoic acid], in test [1], the “nuclear-GFP expression in U2-OS cells (viral entry)” value is “no nuclear-GFP expression”.

As for `[N-]=[N+]=NCCCCCCCCCCCC(=O)O` [12-azidododecanoic acid], in test [1], the “nuclear-GFP expression in U2-OS cells (viral entry)” value is listed as “no nuclear-GFP expression”. For the same compound, the “impact on the infectivity of the virus (cellular luciferase activity)” value in the test with HIV is “profound impact on the infectivity of the virus”.
